Reference: patent US4489096A, “Quinone compounds, their production and use” (Takeda Chemical Industries, Ltd., priority 1982, dated 1984)

Legend:
[1] = test system: 5-lipoxygenase products (5-HETE) in RBL-1 cells; test: Inhibition of 5-lipoxygenase products in RBL-1 cells (5-HETE production, HPLC); assay type: cell-based; conditions: Rattus norvegicus, 20 min, arachidonic acid + A-23187, 37° C., read-out: Percent inhibition of generation and release of 5-HETE; for inhibition at 10 µM: 10^-5 M test compound; for inhibition at 1 µM: 10^-6 M test compound
Description: RBL-1 cells (rat basophilic leukemia cells) (10^7 cells) were suspended in 0.5 ml of MCM (mast cell medium), the test solution (composed of 0.5 ml MCM, 50 μg arachidonic acid, 10 μg A-23187 and 10^-6 M or 10^-5 M quinone compound) was added, and the mixture was incubated at 37° C. for 20 minutes. Thereafter, 4 ml of ethanol and 1,4-dimethoxy-2-methyl-3-(3-methoxypropyl)naphthalene (internal standard) were added, and the mixture was shaken well, then allowed to stand at room temperature for 10 minutes, and centrifuged at 2,000 revolutions per minute for 10 minutes. The supernatant was collected and concentrated to about 200 μl under reduced pressure. A mixed solvent for high performance liquid chromatography [CH3 CN (1500)-CH3 OH (500)-water (1100)-acetic acid (2), adjusted to pH 5.6 with aqueous ammonia] was added to the concentrate to make up to 1 ml. A 200-μl portion of this solution was subjected to high performance liquid chromatography for assaying 5-HETE (5-hydroxyeicosatetraenoic acid).
The percentage of inhibition of 5-HETE production (IE) is expressed by (1-b/a)×100, where a is the peak height or area corrected relative to the internal standard peak for the quinone compound-free (control) test solution and b is the peak height or area corrected in relation to the internal standard peak for the quinone compound-containing test solution.

[2] = test system: SRS-A generation and release; test: Inhibitory effect on generation and release of SRS-A (sensitized guinea pig lung fragments, antigen egg white albumin); assay type: cell-based, guinea pigs (Hartley strain); conditions: Cavia porcellus; 10^-6 M test compound; number of experiments 3; lung fragments from sensitized guinea pigs
Description: The compounds obtained in accordance with the invention were assayed for the inhibitory effect on the generation of SRS-A by the method of Orange and Moore [J. Immunol., vol. 116, page 392 (1976)]. Thus, the test compound and antigen (egg white albumin) were simultaneously added to the lung fragments from guinea pigs (Hartley strain, male and female, weighing 300-350 g) sensitized with egg white albumin as the antigen. The quantity of SRS-A generated and released on that occasion was determined by the method of Brocklehurst [J. Physiol., vol. 151, pages 416-435 (1960)].

SMILES	inhibition at 10 µM [1]	inhibition at 1 µM [1]	inhibition at 1 µM [2]
CCCCCC#CCC#CCC#CCC#CCCCC(=O)O [ETYA, 5,8,11,14eicosatetraynoic acid, reference compound]	39.4%	35.9%	
CC1=C(C)C(=O)C(CCCCC#CCCCC#CC=O)=C(C)C1=O [Ia-1]	83.5%	71.6%	59 ± 15%
COC1=C(OC)C(=O)C(CCCCC#CCCCC#CC=O)=C(C)C1=O [Ia-2]	84.3%	72.3%	66 ± 6%
CC1=C(C)C(=O)C(CCCCC#CCCCC#CC(=O)O)=C(C)C1=O [Ia-3, 2,3,5-trimethyl-6-(11-carboxyundeca-5,10-diynyl)-1,4-benzoquinone]	86.7%	75.3%	58 ± 6%
COC1=C(OC)C(=O)C(CCCCC#CCCCC#CC(=O)O)=C(C)C1=O [Ia-4]	85.4%	70.6%	61 ± 8%
